Results: patent US12459974B2, “Bicyclic peptide ligands specific for Nectin-4” (priority 2018, dated 2025)
*1 amine or outer side, *2 acyl side, *3 side chain or, on linkers, in order; H or OH if unused. Where a SMILES comes first, the peptide text is derived from it. Bridges are numbered along the chain shown (N, C = ends). Roman numbers before positions name the chains, in order. [ ]: non-standard residue; d: D form. The star is where a group is joined. ξ: configuration not given here. TATA = O=C(CC[*:1])N1CN(C(=O)CC[*:2])CN(C(=O)CC[*:3])C1; Dolaproine = CO[C@@H]([C@@H]1CCCN1)[C@@H](C)C(=O)O; X1 = CC[C@H](C)C(C(CC(=O)[*:2])OC)N(C)[*:1]; 1Nal = N[C@@H](Cc1cccc2ccccc12)C(=O)O; X3 = O=C(CCCC(=O)[*:2])NCCC(=O)[*:1]; PABC = O=C(OCc1ccc(N[*:1])cc1)[*:2]; Hyp = O=C(O)[C@@H]1C[C@@H](O)CN1; hArg = N=C(N)NCCCC[C@H](N)C(=O)O; Cit = NC(=O)NCCC[C@H](N)C(=O)O; X2 = CC(N*)[C@@H](O)c1ccccc1; ξNMeV = CNC(C(=O)O)C(C)C; ξV = CC(C)C(N)C(=O)O; Sar = CNCC(=O)O

System: LU-01-0412 PDX
Experiment: Example 12: in vivo efficacy in Lu-01-0412 PDX model of lung cancer
Parameters: species or system Mus Musculus
Protocol: Animals were checked daily for any effects of tumor growth and treatments on normal behavior such as mobility, food and water consumption (by looking only), body weight gain/loss, eye/hair matting and any other abnormal effect as stated in the protocol. Death and observed clinical signs were recorded on the basis of the numbers of animals within each subset.

With `CC[C@H](C)C(C(CC(=O)N1CCC[C@H]1[C@H](OC)[C@@H](C)C(=O)NC(C)[C@@H](O)c1ccccc1)OC)N(C)C(=O)[C@@H](NC(=O)C(C(C)C)N(C)C(=O)OCc1ccc(NC(=O)[C@H](CCCNC(N)=O)NC(=O)C(NC(=O)CCCC(=O)NCCC(=O)N(C)CC(=O)N(C)CC(=O)N(C)CC(=O)N(C)CC(=O)N(C)CC(=O)N(C)CC(=O)N(C)CC(=O)N(C)CC(=O)N(C)CC(=O)N(C)CC(=O)N[C@H]2CSCCC(=O)N3CN4CN(C3)C(=O)CCSC[C@H](NC(=O)[C@@H](CC(=O)O)NC(=O)[C@H](Cc3cccc5ccccc35)NC(=O)[C@@H]3CCCN3C2=O)C(=O)N[C@@H](CCSC)C(=O)N[C@@H](CCCCNC(=N)N)C(=O)N[C@@H](CC(=O)O)C(=O)N[C@@H](Cc2c[nH]c3ccccc23)C(=O)N[C@@H](CO)C(=O)N[C@@H]([C@@H](C)O)C(=O)N2CCC[C@H]2C(=O)N2C[C@H](O)C[C@H]2C(=O)N[C@@H](Cc2c[nH]c3ccccc23)C(=O)N[C@H](C(N)=O)CSCCC4=O)C(C)C)cc1)C(C)C` (stereo partly drawn) [BCY8245, MMAE-PABC-Cit-Val-Glutaryl-BCY8234] (I: [Sar][Sar][Sar][Sar][Sar][Sar][Sar][Sar][Sar][Sar]CP[1Nal][dD]CM[hArg]DWSTP[Hyp]WC-NH2 / II: [ξV][Cit][PABC][ξNMeV]V[X1][Dolaproine]-X2; linker I:11-I:15-I:25 via TATA; linker I:N-II:N via X3) as the molecule, how does the “efficacy (in words)” value (1 mg/kg qw) read?
The value was “reduction in tumour growth rate”.

What about the “efficacy (in words)” value (3 mg/kg qw) of the same molecule?
Its value is “marked tumor regression”.

What about the “animals with no tumour regrowth” value (3 mg/kg qw, after cessation of dosing (Day 21) out to 105 days post study start) of the same molecule?
The value was 5/6.

And the “response of large tumors (vehicle treated group) to a single dose (in words)” value (single dose)?
Its value is “regressed”.
